Source: PMC10142505, “Synthesis, Evaluation of Enzyme Inhibition and Redox Properties of Potential Dual COX-2 and 5-LOX Inhibitors” (Pharmaceuticals, 2023)

Molecular target: T1, COX-1 ovine enzyme (Ovis aries, UniProt P05979)
T1 construct: purchased Abcam ab204698
T1 sequence (P05979 25-600): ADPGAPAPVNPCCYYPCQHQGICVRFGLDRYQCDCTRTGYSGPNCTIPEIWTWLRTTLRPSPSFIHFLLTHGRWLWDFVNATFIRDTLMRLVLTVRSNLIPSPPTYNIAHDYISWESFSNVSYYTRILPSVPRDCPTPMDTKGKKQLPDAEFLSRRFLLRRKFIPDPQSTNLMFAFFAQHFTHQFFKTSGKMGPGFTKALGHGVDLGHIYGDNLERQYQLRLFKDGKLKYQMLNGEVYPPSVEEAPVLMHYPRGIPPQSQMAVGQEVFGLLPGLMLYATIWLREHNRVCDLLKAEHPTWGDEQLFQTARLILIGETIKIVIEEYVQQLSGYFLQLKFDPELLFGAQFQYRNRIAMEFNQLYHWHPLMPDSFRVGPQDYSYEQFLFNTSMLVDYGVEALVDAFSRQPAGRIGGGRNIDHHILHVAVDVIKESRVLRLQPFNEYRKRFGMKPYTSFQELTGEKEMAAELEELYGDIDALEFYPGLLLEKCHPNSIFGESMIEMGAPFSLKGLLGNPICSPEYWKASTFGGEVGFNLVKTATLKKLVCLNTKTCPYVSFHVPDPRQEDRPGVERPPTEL
Assay: Fluorometric COX-1 inhibitor screening kit
Type: biochemical
Settings: for inhibition at 100 µM: at 100 µM concentration; for IC50: fluorometric kit
Protocol: The COX-1 and COX-2 inhibitory activates of the synthesized compounds were tested using fluorometric COX-1 (Catalog Number: ab204698) and COX-2 (Catalog Number: ab283401) inhibitor screening kits (Abcam, United Kingdom). These assays are based on the fluorometric detection of Prostaglandin G2, generated by the COX enzyme. The experiment was conducted according to the manufacturer’s instructions. Each assay consists of a COX Assay Buffer, COX Probe (in DMSO), COX Cofactor (in DMSO), arachidonic acid and NaOH. The COX-1 inhibitor screening kit contains COX-1 ovine enzyme and COX-1 inhibitor SC560 (dissolved in DMSO), while the COX-2 inhibitor screening kit contains COX-2 human recombinant enzyme and COX-2 inhibitor Celecoxib (dissolved in DMSO). The tested compounds were dissolved in DMSO and further diluted five times with the COX Assay Buffer. The Inhibitor Control (IC) was prepared by adding 2 µL of COX-1/COX-2 inhibitor and 8 µL of COX Assay Buffer into assigned wells, while the Solvent Control (SC) was prepared by adding 2 µL of DMSO and 8 µL of COX Assay Buffer into assigned wells and the Sample (S) and Enzyme Control (EC) were prepared by adding 10 µL of diluted tested compounds or COX Assay Buffer into assigned wells. The Reaction Master Mix (COX Assay Buffer, COX Probe, Diluted COX Cofactor and COX-1/COX-2 Enzyme) was prepared according to instructions and 80 µL of the Reaction Master Mix was added into each well. Meanwhile, a diluted arachidonic acid/NaOH solution was prepared and 10 µL was added into each well using a multi-channel pipette to initiate all the reactions at the same time. The fluorescence values (Ex/Em = 535/587 nm) of the samples were kinetically measured at 25 °C for 5–10 min. The EC, SC, IC and tested compounds at all concentrations were analyzed in triplicates. Two points (T1 and T2) in the linear range of the plot were chosen and corresponding fluorescence values (RFU1 and RFU2) were obtained. The slope for all samples was calculated by dividing ΔRFU (RFU2-RFU1) by time Δt (T2−T1). The percentage of inhibition was calculated as follows: % Relative Inhibition=Slope of EC−Slope of S/Slope of EC∗100
Fluorescence measurements were performed on a BioTek Synergy LX multi-mode reader (Winooski, VT, USA).

| inhibition at 100 µM [%] | IC50 [µM] | Structure (SMILES) |
| --- | --- | --- |
| < 50 | > 100 | COc1ccc2cc(C(C)N(O)C(C)=O)ccc2c1 (centres unmarked) [Compound 12, N-hydroxy-N-[1-(6-methoxy-naphthalen-2-yl)-ethyl]-acetamide] |
| < 50 | > 100 | CC(NC(=O)NO)c1ccc(-c2ccccc2)c(F)c1 (centres unmarked) [Compound 2] |
| < 50 | > 100 | COC(=O)CNC(=O)c1cc(C(C)(C)C)c(O)c(C(C)(C)C)c1 [Compound 5, (3,5-di-tert-butyl-4-hydroxy-benzoylamino)-acetic acid methyl ester] |
| < 50 | > 100 | C=CCNC(=O)c1cc(C(C)(C)C)c(O)c(C(C)(C)C)c1 [Compound 6, N-allyl-3,5-di-tert-butyl-4-hydroxy-benzamide] |
| < 50 | > 100 | O=C(NO)NCc1ccccc1Nc1c(Cl)cccc1Cl [Compound 3, N’-hydroxy-N-[(2-(2,6-dichloroanilino)phenyl)methyl]urea] |
| < 50 | > 100 | CC(=O)N(O)C(C)c1ccc(CC(C)C)cc1 (centres unmarked) [Compound 11] |
| < 50 | > 100 | COc1ccc2c(c1)c(CNC(=O)NO)c(C)n2C(=O)c1ccc(Cl)cc1 [Compound 1, N’-hydroxy-N-[(1-(4-chlorobenzoyl)-5-methoxy-2-methyl-3-indolyl)methyl]urea] |
